Laboratory results from a melting point compilation (Tetko et al.; mined from patent text by program, amines drawn as free bases though some values may be those of a salt).

Row | SMILES | melting point [°C]
1 | CCc1cc2c(cc(C(N)=O)c(=O)n2Cc2ccc(-c3ccccc3-c3nnn(C(c4ccccc4)(c4ccccc4)c4ccccc4)n3)cc2)c(CC)n1 | 162 to 165
2 | NC(=O)c1ccccc1NCCC12CCCN1CCC2 | 145 to 147
3 | CC(C)(C)NC(=O)c1nn(-c2ccc(C(F)(F)F)cc2)c2c1C1CCC2CC1 | 174 to 176
4 | CC(C)NCC(O)COc1cc(-c2ccccc2)nc2ccccc12 (racemic) | 109 to 111
5 | COc1cc(CS(=O)c2ccc(O)cc2)cc(OC)c1OC (centres undefined) | 153
6 | ClCCOc1ccc2ccccc2c1 | 94
7 | Cc1ccc2c(c1)C=C(C(=O)O)C(C(F)(F)F)O2 (centres undefined) | 192 to 193
8 | Clc1ccc(N2CCN(c3ccccn3)CC2)nn1 | 195
9 | CN(C)CC(c1ccccc1)c1nnc2n1-c1ccc(Cl)cc1C(c1ccccc1)=NC2 (centres undefined) | 168 to 170
10 | CSC(=NC(=O)COC(C)=O)N(C)N=Cc1ccccc1 | 115 to 117
11 | COc1ccc2cc(C(C)NC(=O)NO)ccc2c1 (centres undefined) | 174 to 176
12 | C=CCNc1nc(NCC(C)(C)C)nc2ccc([N+](=O)[O-])cc12 | 167 to 168
13 | CNc1ccccc1-c1nc2ncccc2[nH]1 | 262 to 263
14 | COc1ccc2c(c1)C(=O)N(C)C(C(Cl)(Cl)Cl)O2 (centres undefined) | 107 to 110
15 | O=S(=O)(NCCCO)c1ccc(Nc2nccc(-c3ccc(C(F)(F)F)cc3)n2)cc1 | 204 to 205
16 | Cc1ncn(Nc2cccc(Cl)c2)c1C | 146
17 | O=C(C=Cc1ccc(-c2ccc(OCCCN3CCCCC3)cc2)cc1)N1CCCCC1 | 146 to 150
18 | CCCn1cc(Cc2ccc(C(=O)NS(=O)(=O)c3ccccc3C)cc2OC)c2cc(CC3CCN(CC)C3=O)ccc21 (centres undefined) | 107 to 115
19 | CCCCNC(=O)Cc1ccc(O)c(C2CCCCC2)c1 | 118 to 120
20 | CCCc1ccc(S(=O)(=O)Nc2ccc3nc(C)oc3c2)cc1 | 102

Row | SMILES | melting point [°C]
21 | CN(C)Cc1nc(CO)nn1-c1ccc(Cl)cc1C(=O)c1ccccc1 | 198 to 200
22 | CC(C)(C)OC(=O)N[C@@H]1C(=O)N(OCC(=O)OCc2ccc([N+](=O)[O-])cc2)[C@@H]1COC(N)=O | 189 to 191
23 | Cc1c(C(N)=O)oc2c(C(=O)NCCCN3CCN(c4cc(Cl)ccc4O)CC3)cccc2c1=O | 116 to 158
24 | CCCc1cc(=O)oc2c(C=O)c(O)c3c(c12)OC(C)(C)C=C3 | 116 to 117
25 | Cc1cccc(-n2c(-c3sc(Nc4ccc(Cl)cc4)nc3-c3ccccc3)nc3ccccc3c2=O)c1 | 233 to 235
26 | C=Cc1ccc(CSCCNC(=O)CCCC(=O)O)cc1 | 118 to 119
27 | CCN=C(NC(=O)OC(C)(C)C)Nc1cc(C(C)c2ccc(-c3ccccc3)c(F)c2)no1 (centres undefined) | 87 to 92
28 | COc1ccc(C=C2c3ccccc3CCc3ccccc32)cc1N | 62.7
29 | C=CC[C@@H](CO)[C@@H](O)[C@H](O)C(=O)CO | 112 to 113
30 | CC=C1CCC(C(=O)OCCOC(=O)C2=C(C)C(=CC)CC2)=C1C | 95 to 97
31 | O=C(c1ccc([N+](=O)[O-])cc1)N1CCc2cc(S(=O)(=O)n3cc(-c4ccccc4)[nH]c3=O)ccc21 | 245 to 246
32 | CN1C(=O)c2ccccc2OC1(C)COc1ccc(CC2SC(=O)NC2=O)cc1 (centres undefined) | 58 to 60
33 | Cc1[nH]c(=O)c2cc3nc(-c4ccncc4)[nH]c3cc2c1C | > 300
34 | CC12CCC(=O)C=C1CCC1C2=CCC2(C)C1CCC2(O)C#N (centres undefined) | 225 to 228
35 | O=Cc1ccccc1C(=O)c1ccc(Cl)cc1 | 112 to 113
36 | CCOC(=O)c1sc(Cl)nc1C(F)(F)F | 58 to 59
37 | CCCn1c(=O)c2[nH]c(/C=C/c3ccc(Cl)cc3)nc2n(CCC)c1=O | > 290
38 | CCCCc1c2c(nc3ccccc13)-c1cc3c(c(=O)n1C2)COC(=O)CC3(O)CC (centres undefined) | 220 to 221
39 | COC(=O)c1c(C)c(O)cc(OC)c1Cl | 92
